Read-outs that look alike come from different tables or passages of the source.
How the values were obtained:
Xenopus laevis tadpoles = assay: Tadpole loss of righting (LRR) and swimming (LSR) reflexes; assay type: in vivo; details: 3 h equilibration at room temperature; for EC50: read-out: LSR EC50 (loss of swimming response)
Protocol: Tadpole LRR was measured as described previously. (See, Wittmer, L. L., et al., Enantioselectivity of steroid-induced γ-aminobutyric acidA receptor modulation and anesthesia, Mol. Phar., 1996, 50:1581-1586). Briefly, groups of 10 early prelimb-bud stage Xenopus laevis tadpoles (Nasco, Fort Atkinson, Wis.) were placed in 100 mL of oxygenated Ringer's stock solution containing various concentrations of compound. Compounds were added from a 10 mM DMSO stock (final concentration of DMSO in test solutions ≦0.1%). After equilibrating at room temperature for 3 h, tadpoles were evaluated using the LRR and LSR behavioral endpoints. LRR was defined as failure of the tadpole to right itself within 5 sec after being flipped by a smooth glass rod. LSR was defined as failure of the tadpole to swim when touched by a smooth glass rod. In general, the tadpoles regained their righting and swimming reflexes when placed in fresh oxygenated Ringer's solution. Control beakers containing up to 0.6% DMSO produced no LRR or LSR in tadpoles.
Tadpole LRR and LSR concentration-response curves were fit using Sigma Plot version 3.0 to the Hill equation f=Rmax/{1+([conc]/EC50)^n}
where Rmax is the maximum effect, [conc] is the steroid concentration, EC50 is the half-maximal effective concentration, and n is the Hill coefficient.

[1] = biological target: T1, rat α1β2γ2 GABAA Receptor (Rattus norvegicus, UniProt P18508+P62813+P63138, INS375LLRMFSFK); assay: Xenopus oocyte two-electrode voltage-clamp electrophysiology; assay type: cell-based; details: for Oocyte electrophysiology, ratio of currents in presence/absence of compound, 10 μM: 10 μM compound co-applied with 2 μM GABA; for Oocyte electrophysiology, ratio of currents in presence/absence of compound, 10 μM / Oocyte electrophysiology, ratio of currents in presence/absence of compound, 0.1 μM / Oocyte electrophysiology, ratio of currents in presence/absence of compound, 1 μM: −70 mV; for Oocyte electrophysiology, ratio of currents in presence/absence of compound, 0.1 μM: 0.1 μM compound co-applied with 2 μM GABA; for Oocyte electrophysiology, ratio of currents in presence/absence of compound, 1 μM: 1 μM compound co-applied with 2 μM GABA; for Gating (10 μM), ratio of compound only current/2 μM GABA current: direct current gated by 10 μM compound in the absence of GABA
T1 construct: from linearized pBluescript vectors containing receptor coding regions; expressed in transfected cells; host or cells: Xenopus laevis oocytes injected with in vitro transcribed capped mRNA
T1 sequence (P62813 28-455, stated change not applied): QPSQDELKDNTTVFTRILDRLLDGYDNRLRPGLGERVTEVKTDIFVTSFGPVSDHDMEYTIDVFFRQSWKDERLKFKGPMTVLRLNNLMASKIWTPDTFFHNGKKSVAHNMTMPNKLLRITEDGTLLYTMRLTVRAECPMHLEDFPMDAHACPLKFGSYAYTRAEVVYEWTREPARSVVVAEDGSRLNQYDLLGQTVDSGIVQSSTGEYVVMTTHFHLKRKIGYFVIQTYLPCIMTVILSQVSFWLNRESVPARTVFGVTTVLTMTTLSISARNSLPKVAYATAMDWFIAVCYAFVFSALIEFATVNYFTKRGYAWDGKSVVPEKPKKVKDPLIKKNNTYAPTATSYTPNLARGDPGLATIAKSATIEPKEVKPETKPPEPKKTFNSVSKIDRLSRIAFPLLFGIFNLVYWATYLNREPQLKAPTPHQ
T1 sequence (P63138 26-474, stated change not applied): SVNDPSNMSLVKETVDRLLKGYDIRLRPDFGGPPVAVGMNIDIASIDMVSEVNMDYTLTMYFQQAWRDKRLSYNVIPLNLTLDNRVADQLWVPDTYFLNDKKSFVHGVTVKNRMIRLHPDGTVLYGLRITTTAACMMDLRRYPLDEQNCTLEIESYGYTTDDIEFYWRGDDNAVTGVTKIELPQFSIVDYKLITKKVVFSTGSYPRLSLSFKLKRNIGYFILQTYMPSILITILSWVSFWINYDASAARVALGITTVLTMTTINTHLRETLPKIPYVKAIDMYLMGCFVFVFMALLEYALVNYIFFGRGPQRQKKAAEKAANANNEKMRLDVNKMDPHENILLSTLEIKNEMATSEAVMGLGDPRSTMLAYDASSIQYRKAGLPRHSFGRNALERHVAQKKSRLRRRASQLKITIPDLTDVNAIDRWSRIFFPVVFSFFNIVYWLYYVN
T1 sequence (P18508 with tags, fused parts or gaps INS375LLRMFSFK): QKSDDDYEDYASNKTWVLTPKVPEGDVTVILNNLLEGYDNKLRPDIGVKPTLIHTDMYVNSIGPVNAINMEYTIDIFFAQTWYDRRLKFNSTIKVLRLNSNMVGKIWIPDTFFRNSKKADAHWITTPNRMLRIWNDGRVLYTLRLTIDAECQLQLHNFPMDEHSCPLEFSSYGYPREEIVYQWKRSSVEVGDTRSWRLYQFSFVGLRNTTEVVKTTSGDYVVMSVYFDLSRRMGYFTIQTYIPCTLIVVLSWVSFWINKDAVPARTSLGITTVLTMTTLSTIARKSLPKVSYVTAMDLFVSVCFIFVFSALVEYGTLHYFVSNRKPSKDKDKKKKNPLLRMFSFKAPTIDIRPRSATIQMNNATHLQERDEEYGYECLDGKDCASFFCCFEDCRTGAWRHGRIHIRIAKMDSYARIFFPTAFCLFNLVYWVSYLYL
Protocol: Stage V-VI oocytes were harvested from sexually mature female Xenopus laevis (Xenopus One, Northland, Mich.) under 0.1% tricaine (3-aminobenzoic acid ethyl ester) anesthesia. Oocytes were defolliculated by shaking for 20 min at 37° C. in collagenase (2 mg/ml) dissolved in calcium-free solution containing (in mM): 96 NaCl, 2 KCl, 1 MgCl2, and 5 HEPES at pH 7.4. Capped mRNA, encoding rat GABAA receptor α1, β2 and γ2L subunits was transcribed in vitro using the mMESSAGE mMachine Kit (Ambion, Austin, Tex.) from linearized pBluescript vectors containing receptor coding regions. Subunit transcripts were injected in equal parts (20-40 ng total RNA) 8-24 hours following defolliculation. Oocytes were incubated up to 5 days at 18° C. in ND96 medium containing (in mM): 96 NaCl, 1 KCl, 1 MgCl2, 2 CaCl2 and 5 HEPES at pH 7.4, supplemented with pyruvate (5 mM), penicillin (100 U/ml), streptomycin (100 μg/ml) and gentamycin (50 μg/ml). The cDNAs for the rat GABAA-receptor subunits were originally provided by A. Tobin, University of California, Los Angels (α1), P. Malherbe, Hoffman-La Roche, Switzerland (β2), C. Fraser, National Institute on Alcohol Abuse and Alcoholism (γ2L).
Two-electrode voltage-clamp experiments were performed with a Warner OC725 amplifier 2-5 days following RNA injection. The extracellular recording solution was ND96 medium with no supplements. Intracellular recording pipettes were filled with 3 M KCl and had open tip resistances of ˜1 MΩ. Drugs were applied from a common tip via a gravity-driven multibarrel drug-delivery system. Steroids were simultaneously co-applied with GABA. Cells were clamped at −70 mV for all experiments, and peak current during 20 s drug applications was measured. Data acquisition and analysis were performed with pCLAMP software (Axon Instruments, California). Statistical differences were determined using a two-tailed Student's t-test.
The GABA concentration used for the control response was 2 μM. Each compound was evaluated on at least four different oocytes at the concentrations indicated, and the results reported are the ratio of the currents measured in the presence/absence of added compound. (G) represents direct current gated by 10 μM compound in the absence of GABA, and this current is reported as the ratio of compound only current/2 μM GABA current. Error limits are calculated as standard error of the means.

[2] = biological target: GABAA receptor ([35S]-TBPS binding site, rat brain cortical membranes); assay: Displacement of [35S]-TBPS binding, rat brain cortical membranes; details: 5 μM GABA, 2 nM [35S]-TBPS; ± standard error of the means
Protocol: Rat brain cortical membranes were prepared with minor modifications of the method previously reported. (Hawkinson, J. E., et al., Correlation of Neuroactive Steroid Modulation of [^35S]t-Butylbicyclophosophorothionate and [^3H]Flunitrazepam Binding and γ-Aminobutyric AcidA Receptor Function, Mol. Pharmacol., 1994, 46, 977-985). Briefly, frozen rat cerebral cortices (Pel-freez, Rogers, Ak.) were thawed and homogenized in 10 volumes of ice-cold 0.32 M sucrose using a glass/Teflon pestle. The homogenate was centrifuged at 1500×g for 10 min at 4° C. The resultant supernatant was centrifuged at 10,000×g for 30 min at 4° C. The pellet (P2) from this centrifugation was resuspended in 200 mM NaCl, 50 mM potassium phosphate buffer, pH 7.4, and centrifuged at 10,000×g for 20 min at 4° C. This washing procedure was done a total of three times, and then pellets were resuspended in buffer (˜4 mL/brain) using a glass/Teflon pestle. The membrane suspension was aliquoted, frozen in liquid nitrogen, and stored at −80° C. prior to use.
[^35S]-TBPS Binding assays were done according to the procedure described previously (Hawkinson, J. E., et al., Correlation of Neuroactive Steroid Modulation of [^35S]t-Butylbicyclophosophorothionate and [^3H]Flunitrazepam Binding and γ-Aminobutyric AcidA Receptor Function, Mol. Pharmacol., 1994, 46, 977-985) with modifications. Briefly, aliquots of membrane solution (0.5 mg/mL final protein concentration in assay) were incubated with 5 μM GABA, 2 nM [^35S]-TBPS (45-120 Ci/mmol), and 5 μL aliquots of steroid in DMSO solution (final assay concentrations ranged from 1 nM to 10 μM), and brought to a final volume of 1 mL with 200 mM NaCl, 50 mM potassium phosphate buffer, pH 7.4. […] Assay tubes were incubated for 2 hr at room temperature. A Brandel (Gaithersburg, Md.) cell harvester was used for filtration of the assay tubes through Whatman/GF/C glass filter paper. Filter paper was rinsed with 4 mL of ice-cold buffer three times. Radioactivity bound to the filters was read by liquid scintillation counter and data was fit using Sigma Plot version 3.0 to the Hill equation i. f=Rmax/{1+([conc]/IC50)^n}
Where Rmax is the maximal effect, [conc] is steroid concentration, IC50 is the half-maximal inhibitor concentration and n is the Hill coefficient. Each data point was determined in triplicate and 2-3 full concentration-response curves were generated for each steroid.

Structure (SMILES)	LRR ED50 (loss of righting response) (Xenopus laevis tadpoles)	EC50 (Xenopus laevis tadpoles; Xenopus laevis, 3 h) [nM]	Oocyte electrophysiology, ratio of currents in presence/absence of compound, 10 μM [1]	melting point	IC50 [2] [nM]	LSR EC50 (loss of swimming response) (Xenopus laevis tadpoles)	Oocyte electrophysiology, ratio of currents in presence/absence of compound, 0.1 μM [1]	Oocyte electrophysiology, ratio of currents in presence/absence of compound, 1 μM [1]	Gating (10 μM), ratio of compound only current/2 μM GABA current [1]	EC50 (Xenopus laevis tadpoles) [nM]
C[C@]12CC[C@@H](O)C[C@@H]1CCC1C3CC[C@@H]4C=CC=C[C@]34CCC12 (stereo partly drawn) [Compound 60, (3α,5α)-13,24-Cyclo-18,21-dinorchol-20(22),23-dien-3-ol]	2700 ± 720 nM	> 10000	1.1 ± 0.1	136 to 138 °C	467 ± 26	–	–	–	–	–
CC(=O)C1CCCC23CCC4C(CCC5CC(O)CCC54C)C2CCC13 [Compound 80, (3α,5α,20R)-1-[3-Hydroxy-13,24-cyclo-18,21-dinorcholan-20-yl]ethanone]	None @ 10	–	0.93 ± 0.07	228 to 229 °C	2060	None @ 10	0.85 ± 0.02	0.77 ± 0.03	0.01 ± 0.01	–
CC12CCC(O)CC1CCC1C2CCC23CCCC(O)C2CCC13 [Compound 67, (3α,5α,20S)-13,24-cyclo-18,21-dinorcholane-3,20-diol]	None @ 10	–	1.37 ± 0.15	261 to 262 °C	613 ± 92	None @ 10	0.89 ± 0.03	0.94 ± 0.08	−0.01 ± 0.00	–
CC12CCC(O)CC1CCC1C2CCC23CC(=O)C=CC2CCC13 (stereo not drawn) [Compound 21c, (3α,5α)-3-Hydroxy-13,24-cyclo-18,21-dinorchol-20(22)-en-23-one]	1280 ± 380 nM	–	16.58 ± 2.45	209 to 210 °C	243 ± 11	–	1.59 ± 0.14	5.53 ± 0.66	0.35 ± 0.12	10000
C[C@]12CC[C@@H](O)C[C@@H]1CCC1C3CC[C@@H]4[C@]5(CCC[C@]34CCC12)CO5 (stereo partly drawn) [Compound 74, (3α,5α,20R)-20,21-Epoxy-13,24-cyclo-18-norcholan-3-ol]	>10000 nM	–	4.53 ± 0.75	206 to 211 °C (dec.)	64 ± 9	None @ 10	1.61 ± 0.18	5.46 ± 1.21	−0.01 ± 0.01	–
CC(=O)C1=CCCC23CCC4C(CCC5CC(O)CCC54C)C2CCC13 (stereo not drawn) [Compound 83, (3α,5α)-1-[3-Hydroxy-13,24-cyclo-18,21-dinorchol-20(22)-en-20-yl]ethanone]	7200 ± 6620 nM	–	1.15 ± 0.04	198 to 200 °C	3190	None @ 10	0.89 ± 0.02	0.86 ± 0.04	0.00 ± 0.00	–
CC(=O)C1CCCC23CCC4C(CCC5CC(O)CCC54C)C2CCC13 [Compound 79, (3α,5α,20S)-1-[3-Hydroxy-13,24-cyclo-18,21-dinorcholan-20-yl]ethanone]	None @ 10	–	1.70 ± 0.12	187 to 189 °C	93 ± 9	None @ 10	1.00 ± 0.08	1.13 ± 0.15	−0.06 ± 0.04	–

Reference: patent US7781421B2, “Neuroactive 13, 24-cyclo-18, 21-dinorcholanes and structurally related pentacyclic steriods” (Washington University, priority 2003, dated 2010)
